Values quoted from earlier work, collected in PMC13472183 (Journal of drug delivery science and technology, 2022).

Conditions: previous reported value, without the EDA modification

Tm (triple helix melting temperature): 50 °C
Substance: NH2-(VPGFG)6G-(GPO)7GG-CONH2 [F6-GPO7]
